Test results as given in paper PMC2990756, “Quantitative High-Throughput Screening Identifies 8-Hydroxyquinolines as Cell-Active Histone Demethylase Inhibitors” (PLoS ONE, 2010).
pIC50: −log10 of the molar value. Like-named read-outs stand apart in the source and are kept apart here.

How the values were obtained:
Type in all cases: biochemical
[1] = biological target: T1, JMJD2E (Homo sapiens, UniProt B2RXH2); assay: JMJD2E FDH-coupled assay under low and high iron conditions (iron chelation profile); design: The catalytic domain of human JMJD2E (residues 1–337); His6 (N); made in house; host or cells: E. coli; details: Table S1; for pIC50: unit not in table, from Figure 2
T1 sequence (B2RXH2 1-337): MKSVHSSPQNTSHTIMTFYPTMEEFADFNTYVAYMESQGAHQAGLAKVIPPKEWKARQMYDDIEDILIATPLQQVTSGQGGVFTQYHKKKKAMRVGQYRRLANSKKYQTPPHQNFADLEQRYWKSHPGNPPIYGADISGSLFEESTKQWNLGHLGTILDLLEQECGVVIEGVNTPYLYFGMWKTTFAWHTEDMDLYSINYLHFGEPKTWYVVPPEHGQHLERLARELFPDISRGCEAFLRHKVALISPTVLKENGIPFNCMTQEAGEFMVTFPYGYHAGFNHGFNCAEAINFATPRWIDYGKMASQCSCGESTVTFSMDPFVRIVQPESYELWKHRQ
Procedure: The prioritized compounds were also evaluated in the screening assay using two different ferrous ion concentrations (termed high iron and low iron, respectively), in order to assess their propensity for iron chelation.
The ratio of IC50 values under high iron to low iron was calculated for each compound.

[2] = biological target: T2, JMJD2E (KDM4E) (Homo sapiens, UniProt B2RXH2); assay: qHTS fluorescence FDH-coupled JMJD2E demethylase assay; details: for pIC50: Table S1, unit not in table, from Figure 2, read-out: qHTS Data: jmjd2e IC50
T2 construct: The catalytic domain of human JMJD2E (residues 1–337); His6 (N); made in house; host or cells: E. coli
T2 sequence (B2RXH2 1-337): T1 sequence (B2RXH2 1-337)
Source text: The oxidation of formaldehyde is coupled to the reduction of NAD^+ to NADH, which is monitored by fluorescence spectroscopy. […] To this end, initial screening hits were filtered by a combination of cheminformatics (to exclude low-confidence inhibitors and autofluorescent false positives), counterscreening against the coupled-assay component formaldehyde dehydrogenase (FDH), and orthogonal direct detection of inhibition of demethylation by mass spectrometry ( Figure 1 ).
Reactions were initiated with 1 µL addition of peptide substrate solution containing final concentrations of 10 µM FAS, 50 µM 2OG, 0.25 U/mL FDH, 0.25 mM NAD^+, and 50 µM peptide substrate (ARK(me3)STGGK). A ViewLux imager (PerkinElmer, Waltham, MA) was used to measure NADH fluorescence (λex 340 nm, λem 450 nm) immediately after substrate addition and following 30 min incubation at room temperature. To record any systematic drifts in assay behavior (signal window and noise), assay plates containing no library compounds but only DMSO as a vehicle control were tested periodically (every ∼60 plates) throughout the screen.
Data were normalized to the basal response (0% activity) in the absence of enzyme and the maximal response (100% activity) in the absence of compound. Using the Hill equation, dose-response curves and IC50 values were automatically generated for each compound tested with software developed internally (www.ncgc.nih.gov/pub/openhts/curvefit/). […] The initial well fluorescence (first kinetic read) associated with each sample was stored in a database and used in the cheminformatics analysis to identify autofluorescent compounds interfering with the assay signal.

[3] = biological target: T3, formaldehyde dehydrogenase (FDH) (Pseudomonas putida, UniProt P46154); assay: FDH coupling enzyme counterscreen; details: Table S1, FDH counterscreen; for pIC50: unit not in table, from Figure 2, read-out: qHTS Data: jmjd2e fdh IC50
T3 construct: purchased Sigma-Aldrich
T3 sequence (P46154 whole entry): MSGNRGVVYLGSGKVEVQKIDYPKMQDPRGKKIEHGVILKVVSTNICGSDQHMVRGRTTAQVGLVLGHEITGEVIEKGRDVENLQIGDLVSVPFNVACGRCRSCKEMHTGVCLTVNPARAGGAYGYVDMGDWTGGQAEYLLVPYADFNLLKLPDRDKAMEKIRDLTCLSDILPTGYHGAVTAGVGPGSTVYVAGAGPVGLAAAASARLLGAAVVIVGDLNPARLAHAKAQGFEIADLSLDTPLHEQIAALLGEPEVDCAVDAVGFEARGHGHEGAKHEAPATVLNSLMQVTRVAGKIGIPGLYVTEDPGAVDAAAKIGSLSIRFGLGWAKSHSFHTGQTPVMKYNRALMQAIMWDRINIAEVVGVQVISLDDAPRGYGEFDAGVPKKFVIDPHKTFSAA
Source text: Dimethylsulfoxide certified ACS grade (DMSO) was from Fisher, Inc. HEPES buffer was obtained from Gibco. […] Black solid-bottom 1,536-well assay plates were from Greiner Bio-One (Monroe, NC).

[4] = high iron, head says 20 µM FAS, read-out: qHTS Data: jmjd2e fas20um IC50
[5] = low iron 2.5 µM FAS, read-out: qHTS Data: jmjd2e fas2.5um IC50

## CN(C)S(=O)(=O)c1cccc(-n2sc3ccccc3c2=O)c1 [compound 24834029]
[1]; [4]
  pIC50: 5.90
[1]; [5]
  pIC50: 5.35
[2]
  pIC50: 5.45
[3]
  qHTS Data: jmjd2e fdh CurveClass: Poor quality curve
  pIC50: 5.10

## Cc1ccc(C)c(S(=O)(=O)N2CCN(Cc3ccc(O)c4ncccc34)CC2)c1 [compound 24838962]
[1]; high iron
  qHTS Data: jmjd2e fas20um CurveClass: Inactive
[1]; [5]
  pIC50: 5.00
[2]
  pIC50: 5.45
[3]
  qHTS Data: jmjd2e fdh CurveClass: Inconclusive

## C[C@@H]1Cc2c(O)c(O)cc(O)c2C(=O)O1 [compound 26657786]
[1]; high iron
  qHTS Data: jmjd2e fas20um CurveClass: Inactive
[1]; [5]
  pIC50: 5.45
[2]
  pIC50: 5.70
[3]
  qHTS Data: jmjd2e fdh CurveClass: Inactive

## COc1cc(/C=N/Nc2nncn2N)ccc1OCc1c(C)no[n+]1[O-] [compound 26657989]
[1]; high iron
  qHTS Data: jmjd2e fas20um CurveClass: Inactive
[1]; [5]
  pIC50: 5.35
[2]
  pIC50: 6.30
[3]
  qHTS Data: jmjd2e fdh CurveClass: Inactive

## O=C(CCc1ccccc1)NCC(=O)N/N=C/c1ccc(O)cc1O [compound 26660953]
[1]; [4]
  pIC50: 5.35
[1]; [5]
  pIC50: 5.35
[2]
  pIC50: 5.20
[3]
  qHTS Data: jmjd2e fdh CurveClass: Poor quality curve
  pIC50: 4.75

## CC(C)c1ccccc1NC(=O)CNCCc1ccc(C(F)(F)F)cc1.O=C(O)C(=O)O [compound 26661422]
[1]; high iron
  qHTS Data: jmjd2e fas20um CurveClass: Inactive
[1]; [5]
  pIC50: 4.55
[2]
  pIC50: 5.50
[3]
  qHTS Data: jmjd2e fdh CurveClass: Inactive

## C/C(=N\Nc1ccc2nncn2n1)c1ccccn1 [compound 26664046]
[1]; [4]
  pIC50: 5.05
[1]; [5]
  pIC50: 5.05
[2]
  pIC50: 5.00
[3]
  qHTS Data: jmjd2e fdh CurveClass: Poor quality curve
  pIC50: 4.45

## O=Cc1ccc(O)c2ncccc12 [compound 26664581]
[1]; high iron
  qHTS Data: jmjd2e fas20um CurveClass: Poor quality curve
[1]; [4]
  pIC50: 4.25
[1]; [5]
  pIC50: 5.15
[2]; Figure 3, substituted 8-hydroxyquinolines against JMJD2E, read-out: IC50 /μM (qHTS IC50, FDH-coupled assay)
  IC50: 3.2 µM
[2]
  pIC50: 5.50
[3]
  qHTS Data: jmjd2e fdh CurveClass: Inactive

## O=c1c(O)cccc2cc(O)c(O)c(O)c12 [compound 26665710]
[1]; [4]
  pIC50: 4.90
[1]; [5]
  pIC50: 5.65
[2]
  pIC50: 5.10
[3]
  qHTS Data: jmjd2e fdh CurveClass: Poor quality curve
  pIC50: 5.20

## O=c1cc2c(=O)oc3cc(O)c(O)oc3c2c(O)c1O [compound 26666750]
[1]; [4]
  pIC50: 4.80
[1]; [5]
  pIC50: 5.75
[2]
  pIC50: 5.40
[3]
  qHTS Data: jmjd2e fdh CurveClass: Inactive

## COc1ccc(Cn2c(O)c(/C=N/NC(=O)c3ccncc3)c(=O)[nH]c2=O)cc1 [compound 26667135]
[1]; [4]
  pIC50: 5.05
[1]; [5]
  pIC50: 5.05
[2]
  pIC50: 5.10
[3]
  qHTS Data: jmjd2e fdh CurveClass: Poor quality curve
  pIC50: 4.85

## Cc1cccc(OCC(=O)NCC(=O)N/N=C/c2ccc(O)cc2O)c1 [compound 26671311]
[1]; high iron
  qHTS Data: jmjd2e fas20um CurveClass: Inactive
[1]; [5]
  pIC50: 5.35
[2]
  pIC50: 5.50
[3]
  qHTS Data: jmjd2e fdh CurveClass: Poor quality curve
  pIC50: 6.60

## O=C1C=C(O)c2cccc(O)c2C1=O [compound 26724134]
[1]; [4]
  pIC50: 4.70
[1]; low iron 2.5 µM FAS
  qHTS Data: jmjd2e fas2.5um Curve comment: Poor quality curve
[1]; [5]
  pIC50: 4.85
[2]
  pIC50: 5.10
[3]
  qHTS Data: jmjd2e fdh CurveClass: Inactive

## N#C/C(=C\c1cc(O)c(O)c(O)c1)C(N)=O [compound 26725225]
[1]; [4]
  pIC50: 5.05
[1]; [5]
  pIC50: 5.65
[2]
  pIC50: 6.00
[3]
  qHTS Data: jmjd2e fdh CurveClass: Poor quality curve
  pIC50: 4.40

## O=C(/C=C/c1ccccc1)NC(=S)NNC(=O)c1cnccn1 [compound 26725782]
[1]; [4]
  pIC50: 5.15
[1]; [5]
  pIC50: 5.15
[2]
  pIC50: 5.05
[3]
  qHTS Data: jmjd2e fdh CurveClass: Poor quality curve
  pIC50: 4.45

## O=c1cnnc(N/N=C/c2ccccn2)[nH]1 [compound 26726276]
[1]; high iron
  qHTS Data: jmjd2e fas20um CurveClass: Inactive
[1]; [5]
  pIC50: 5.20
[2]
  pIC50: 5.45
[3]
  qHTS Data: jmjd2e fdh CurveClass: Inactive

## COC(=O)c1ccc(=O)c2nc3/c(=C/O)c(O)cc(=O)c3[nH]c12 [compound 26732584]
[1]; high iron
  qHTS Data: jmjd2e fas20um CurveClass: Inconclusive
[1]; [5]
  pIC50: 5.65
[2]
  pIC50: 5.05
[3]
  qHTS Data: jmjd2e fdh CurveClass: Inactive
